Experimental data from US20110319379A1, “Substituted Indazole Amides And Their Use As Glucokinase Activators” (priority 2009, published 2011).

Each molecule was assayed against T1, recombinant human glucokinase (Homo sapiens, UniProt P35557) (assay: Assay 2: Evaluating Activator Potency in a Matrix Assay at Multiple Glucose Concentrations). Details: Assay 2 matrix assay; 16 glucose concentrations; intrinsic EC50 = concentration affording a 50% reduction in the enzyme's Km (for glucose); read-out: Glucokinase EC50.
T1 construct: Full-length glucokinase (beta cell isoform) was His-tagged at the N-terminus and purified by a Ni column followed by size exclusion chromatography as described above; His tag; made in house; host or cells: E. coli BL21(DE3), vector pBCGK
T1 sequence (P35557 1-465): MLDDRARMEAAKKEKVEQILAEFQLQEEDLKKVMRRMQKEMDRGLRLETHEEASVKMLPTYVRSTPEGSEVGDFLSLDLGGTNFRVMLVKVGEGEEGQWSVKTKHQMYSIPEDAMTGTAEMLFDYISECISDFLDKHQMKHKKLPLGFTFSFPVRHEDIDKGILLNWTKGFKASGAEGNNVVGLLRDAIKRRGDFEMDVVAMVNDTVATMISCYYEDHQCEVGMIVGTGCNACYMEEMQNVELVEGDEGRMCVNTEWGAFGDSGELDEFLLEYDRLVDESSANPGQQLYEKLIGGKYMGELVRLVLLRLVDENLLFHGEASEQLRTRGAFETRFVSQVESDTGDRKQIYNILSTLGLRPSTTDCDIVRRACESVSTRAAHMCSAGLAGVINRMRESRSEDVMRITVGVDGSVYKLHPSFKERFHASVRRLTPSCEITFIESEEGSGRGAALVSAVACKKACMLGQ
Type: biochemical
Procedure: Representative compounds of this invention were evaluated in biochemical assays (Assay 1 or Assay 2) to characterize their glucokinase activation properties.
The recombinant human glucokinase protein utilized in both assays was prepared and purified as described below.
BL21(DE3) cells (Invitrogen Corporation, Carlsbad, Calif.) containing pBCGK (C or N H is) vector were grown at 37° C. (in 2XYT) until the OD600 was between 0.6-1.0. Expression was induced by addition of isopropylthiogalactoside to a final concentration of 0.1-0.2 mM to the cells which were then incubated overnight at 23° C. The next day, cells were harvested via centrifugation at 5000 rpm for 15 minutes at 4° C. The cell pellet was stored at −80° C. for future purification.
Beta Cell Glucokinase His-Taq Purification Conditions: A Ni-NTA (Quigan, Germantown, Md.) column (15-50 mL) was used for separation. Two buffers were prepared, 1) a lysis/nickel equilibration and wash buffer and 2) a nickel elution buffer. The lysis/equilibration/wash buffer was prepared as such: 25 mM HEPES buffer at pH 7.5, 250 mM NaCl, 20 mM imidazole, and 14 mM β-mercaptoethanol as final concentrations. The elution buffer was prepared as such: 25 mM HEPES at pH 7.5, 250 mM NaCl, 400 mM imidazole, and 14 mM β-mercaptoethanol as final concentrations. The buffers were each filtered with a 0.22 μm filter prior to use. The cell pellet (1 L culture) was resuspended in 300 mL of the lysis/equilibration buffer. The cells were then lysed (3 times) with a Microfluidics Model 110Y microfluidizer (Microfluidics Corporation, Newton, Mass.). The slurry was centrifuged with a Beckman Coulter Model LE-80K ultracentrifuge (Beckman Coulter, Fullerton, Calif.) at 40,000 rpm for 45 minutes at 4° C. The supernatant was transferred to a chilled flask. A volume of 20 μl was saved for gel analysis. A Pharmacia AKTA (GMI, Inc., Ramsey, Minn.) purification system was used for separation. The prime lines were purged with lysis/equilibration buffer. The Ni-NTA column was equilibrated with 200 mL of the lysis/equilibration buffer at a flow rate of 5 mL/minute. The supernantant was loaded over the column at 4 mL/minute and the flow-through was collected in a flask. The unbound proteins were washed with lysis/equilibration buffer at a flow rate of 5 mL/minute until the ultraviolet reaches baseline. The protein was then eluted from the column with the imidazole elution buffer via imidazole gradient 20 mM to 400 mM over 320 mL. The column was then stripped of any additional protein with 80 mL of the elution buffer. The elution fractions were each 8 mL, for a total yield of 50 samples. Fractions were analyzed by sodium dodecyl sulfate polyacrylamide (SDS-PAGE) and the fractions containing protein of interest were pooled and concentrated to 10 mL using ultrafiltration cell with a 10,000 molecular weight cut-off (MWCO) Millipore membrane (Sigma-Aldrich, St. Louis, Mo.) under nitrogen gas (60 psi). Protein was further purified by size exclusion chromatography (SEC) using a […] (320 mL) (Amersham Pharmacia, Uppsala, Sweden). SEC was equilibrated with 450 mL sizing buffer containing 25 mM HEPES pH 7.0, 50 mM NaCl, and 5 mM dithiothreitol. Concentrated protein was then loaded over SEC and elution with 400 mL sizing buffer was performed overnight at 0.5 mL/minute. The elution fractions were 5 mL each. The fractions were analyzed by SDS-PAGE and protein containing fractions were pooled. Concentration was measured using Bradford Assay/BSA Standard. Purified protein was stored in small aliquots at −80° C.
Assay 2: Evaluating Activator Potency in a Matrix Assay at Multiple Glucose Concentrations
Utilizing an adaptation of this method, representative compounds of the current invention were evaluated at 22 different concentrations and 16 different glucose concentrations in a coupled enzyme assay system that detects glucokinase activity via depletion of β-NADH.

Row | SMILES | EC50
1 | CCn1cc2c(Oc3cnc(C(=O)N4CCC4)cn3)cc(C(=O)Nc3cnn(C)n3)cc2n1 [Example 1BX, 4-(5-(azetidine-1-carbonyl)pyrazin-2-yloxy)-2-ethyl-N-(2-methyl-2H-1,2,3-triazol-4-yl)-2H-indazole-6-carboxamide] | 15.1 µM
2 | CC(C)n1cc2c(Oc3cnc(C(=O)N4CCC4)cn3)cc(C(=O)Nc3cnn(C)n3)cc2n1 [Example 1BY, 4-(5-(azetidine-1-carbonyl)pyrazin-2-yloxy)-2-isopropyl-N-(2-methyl-2H-1,2,3-triazol-4-yl)-2H-indazole-6-carboxamide] | 17.5 µM
3 | CCn1cc2c(Oc3cnc(C(=O)N(C)C)cn3)cc(C(=O)Nc3cnn(C)n3)cc2n1 [Example 1BZ, 4-(5-(dimethylcarbamoyl)pyrazin-2-yloxy)-2-ethyl-N-(2-methyl-2H-1,2,3-triazol-4-yl)-2H-indazole-6-carboxamide] | 25.1 µM
4 | CCn1cc2c(Oc3ccc(S(C)(=O)=O)cc3)cc(C(=O)Nc3cnn(C)n3)cc2n1 [Example 1CA, 2-ethyl-4-[4-(methylsulfonyl)phenoxy]-N-(2-methyl-2H-1,2,3-triazol-4-yl)-2H-indazole-6-carboxamide] | 8.52 µM
5 | CCn1cc2c(Oc3ccc(S(C)(=O)=O)cc3)cc(C(=O)Nc3cnc(C)cn3)cc2n1 [Example 1CB, 2-ethyl-N-(5-methylpyrazin-2-yl)-4-[4-(methylsulfonyl)phenoxy]-2H-indazole-6-carboxamide] | 0.537 µM
6 | CCn1cc2c(Oc3ccc(S(C)(=O)=O)cc3)cc(C(=O)Nc3ccn(C)n3)cc2n1 [Example 1CC, 2-ethyl-N-(1-methyl-1H-pyrazol-3-yl)-4-[4-(methylsulfonyl)phenoxy]-2H-indazole-6-carboxamide] | 1.21 µM
7 | CCn1cc2c(Oc3ccc(S(C)(=O)=O)cc3)cc(C(=O)Nc3ccc(C(N)=O)cn3)cc2n1 [Example 1CD, N-(5-carbamoylpyridin-2-yl)-2-ethyl-4-[4-(methylsulfonyl)phenoxy]-2H-indazole-6-carboxamide] | 0.261 µM
8 | CCn1cc2c(Oc3ccc(S(C)(=O)=O)cc3)cc(C(=O)Nc3ccc(CC(N)=O)cn3)cc2n1 [Example 1CE, N-[5-(2-amino-2-oxoethyl)pyridin-2-yl]-2-ethyl-4[4-(methylsulfonyl)phenoxy]-2H-indazole-6-carboxamide] | 0.558 µM
9 | CCn1cc2c(Oc3ccc(S(C)(=O)=O)cc3)cc(C(=O)Nc3ccn(CC(N)=O)n3)cc2n1 [Example 1CG, N-[1-(2-amino-2-oxoethyl)-1H-pyrazol-3-yl]-2-ethyl-4-[4-(methylsulfonyl)phenoxy]-2H-indazole-6-carboxamide] | 1.49 µM
10 | CCn1cc2c(Oc3ccc(S(C)(=O)=O)cc3)cc(C(=O)Nc3ccc(F)cn3)cc2n1 [Example 1CI, 2-ethyl-N-(5-fluoropyridin-2-yl)-4-[4-(methylsulfonyl)phenoxy]-2H-indazole-6-carboxamide] | 0.714 µM
11 | Cn1cc(NC(=O)c2cc(Oc3ccc(S(C)(=O)=O)cc3)c3cn(C)nc3c2)nn1 [Example 1CJ, 2-methyl-4-[4-(methylsulfonyl)phenoxy]-N-(1-methyl-1H-1,2,3-triazol-4-yl)-2H-indazole-6-carboxamide] | 0.282 µM
12 | CCn1cc2c(Oc3ccc(S(C)(=O)=O)cc3)cc(C(=O)Nc3ccc(C(=O)OC)cn3)cc2n1 [Example 1CK, methyl 6-[({2-ethyl-4-[4-(methylsulfonyl)phenoxy]-2H-indazol-6-yl}carbonyl)amino]nicotinate] | 0.396 µM
13 | CCn1cc2c(Oc3ccc(S(C)(=O)=O)cc3)cc(C(=O)Nc3ncns3)cc2n1 [Example 1CL, 2-ethyl-4-[4-(methylsulfonyl)phenoxy]-N-1,2,4-thiadiazol-5-yl-2H-indazole-6-carboxamide] | 0.919 µM
14 | CCn1cc2c(Oc3cnc(NC(C)=O)cn3)cc(C(=O)Nc3ccc(C)cn3)cc2n1 [Example 1CM, 4-(5-acetamidopyrazin-2-yloxy)-2-ethyl-N-(5-methylpyridin-2-yl)-2H-indazole-6-carboxamide] | 2.45 µM
